{
  "source": "patent US20250161273A1",
  "about": "“PHARMACEUTICAL COMPOSITION COMPRISING DIPHENYLDIAZOLE DERIVATIVES AND METHODS OF USE” (MODAG GMBH, priority 2022, published 2025)",
  "assay": "phase 1 first-in-human trial, safety and tolerability",
  "assay_type": "in vivo",
  "description": "Anle138b was studied in a single-centre, double-blind, randomised, placebo-controlled single ascending dose (SAD) and multiple ascending dose (MAD) study in healthy subjects. Eligible participants were randomly assigned (1:1 for sentinel subjects and 1:5 for main group) to placebo or anle138b (dose ranging from 50 mg to 300 mg per day), respectively. In addition, the effect of food on the pharmacokinetics (PK) of anle138b in healthy subjects was examined at doses of 150 mg per day (FES, food effect study). Participants were randomized to treatment sequence (fed→fasted) or (fasted→fed). Treatment for the SAD, MAD and FES arms of the study was administered orally in hard gelatin capsules containing either 10 mg or 30 mg of anle138b with excipient (i.e., lauroyl polyoxyl-32 glycerides) or excipient only. The primary endpoints were safety and tolerability, the secondary endpoint was pharmacokinetics. Data from all randomized individuals were evaluated. [Clinicaltrials.gov-identifier: NCT04208152. EudraCT-number: 2019-004218-33] […]\nIn SAD, subjects received a single dose of anle138b or placebo after fasting from all food and drink (except water) for a minimum of 8 h prior to dosing. […] The following data were analyzed: Adverse events, vital signs, safety laboratory, ECG, physical examinations, plasma concentrations of anle138b with interim PK parameter estimations (Tmax, Cmax, AUC0-24, AUC0-tau, AUC0-last and T½, where applicable). […]\nOutcome measures: The primary objective was to assess the safety and tolerability of single (SAD) and multiple (MAD) ascending doses of anle138b to healthy subjects in the fasted state and to assess the safety and tolerability of single doses of anle138b in both the fasted and fed state (FES). To this end, adverse events (AEs), clinical laboratory tests, vital signs, electrocardiograms (ECGs), QT interval corrected for heart rate using Fridericia's formula (QTcF), and physical examination findings were recorded. […]",
  "data": [
    {"smiles": "Brc1cccc(-c2cc(-c3ccc4c(c3)OCO4)n[nH]2)c1", "note": "[anle138b, 3-(1,3-benzodioxol-5-yl)-5-(3-bromophenyl)-1H-pyrazole]", "values": [
      {"measurement": "safety and tolerability (in words)", "setting": "food effect study, 150 mg, fasted and fed conditions", "value": "safe and well tolerated"},
      {"measurement": "serious adverse events (in words)", "setting": "healthy subjects, any part of the study", "value": "no serious adverse events"},
      {"measurement": "safety and tolerability (in words)", "setting": "healthy subjects, up to 300 mg daily for up to 7 consecutive days", "value": "safe and well tolerated at all dose levels"}
    ]}
  ]
}
